Assays:
[1] = system: C57BL/6J mice; experiment: In vivo intraperitoneal glucose tolerance test (IPGTT); settings: C57BL/6J male mice, 100 nmol/kg subcutaneous 1 h before glucose 1.5 g/kg i.p., 0-120 min, n = 6
Procedure: We performed in vivo intraperitoneal glucose tolerance tests (IPGTTs) on seven-week-old male C57BL/6J mice, which we purchased from DBL. The mice were randomly divided into five groups (n = 6). The IPGTTs were performed after glucose (1.5 g/kg dose) had been intraperitoneally administered to C57BL/6J male mice that had been fasted for 3 h. We obtained blood samples from the tail of each mouse at the predetermined time using an Accu-Check Guide (Roche Diabetes Care, Indianapolis, IN, USA).

[2] = K34R mutant; cited from earlier work
[3] = molecular target: human GLP-1 receptor (GLP-1R) overexpressed on HEK-293 cells (human) (UniProt P43220)
Sequence of human GLP-1 receptor (GLP-1R) overexpressed on HEK-293 cells (human) (P43220 24-463): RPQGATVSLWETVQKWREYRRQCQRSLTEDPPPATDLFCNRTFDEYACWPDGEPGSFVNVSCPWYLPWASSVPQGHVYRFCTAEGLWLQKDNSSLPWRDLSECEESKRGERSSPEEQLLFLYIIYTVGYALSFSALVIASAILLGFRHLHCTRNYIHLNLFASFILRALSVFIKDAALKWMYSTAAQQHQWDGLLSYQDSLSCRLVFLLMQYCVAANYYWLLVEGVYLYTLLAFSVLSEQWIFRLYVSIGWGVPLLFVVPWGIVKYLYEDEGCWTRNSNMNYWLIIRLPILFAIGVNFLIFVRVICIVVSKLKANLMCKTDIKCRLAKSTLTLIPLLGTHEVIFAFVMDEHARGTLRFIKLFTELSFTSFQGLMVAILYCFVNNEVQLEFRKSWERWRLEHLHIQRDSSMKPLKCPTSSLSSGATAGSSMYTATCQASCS

| Compound | blood glucose profile / blood glucose levels in IPGTT [1] | biological activity compared with wild-type GLP-1 [2] | EC50 of cAMP production in HEK-293 cells overexpressing GLP-1R [3] [nM] |
| --- | --- | --- | --- |
| CC[C@H](C)[C@H](NC(=O)[C@H](Cc1ccccc1)NC(=O)[C@H](CCC(=O)O)NC(=O)[C@H](CCCCN)NC(=O)[C@H](C)NC(=O)[C@H](C)NC(=O)[C@H](CCC(N)=O)NC(=O)CNC(=O)[C@H](CCC(=O)O)NC(=O)[C@H](CC(C)C)NC(=O)[C@H](Cc1ccc(O)cc1)NC(=O)[C@H](CO)NC(=O)[C@H](CO)NC(=O)[C@@H](NC(=O)[C@H](CC(=O)O)NC(=O)[C@H](CO)NC(=O)[C@@H](NC(=O)[C@H](Cc1ccccc1)NC(=O)[C@@H](NC(=O)CNC(=O)[C@H](CCC(=O)O)NC(=O)[C@H](C)NC(=O)[C@@H](N)Cc1c[nH]cn1)[C@@H](C)O)[C@@H](C)O)C(C)C)C(=O)N[C@@H](C)C(=O)N[C@@H](Cc1c[nH]c2ccccc12)C(=O)N[C@@H](CC(C)C)C(=O)N[C@H](C(=O)N[C@@H](CCCNC(=N)N)C(=O)NCC(=O)N[C@@H](CCCNC(=N)N)C(=O)NCC(=O)O)C(C)C [GLP1_C] | very similar to that of the negative control group | comparable biological activity to that of wild-type GLP-1 |  |
| GLP1_16HSA (GLP-1 variant conjugated to human serum albumin at position 16) (from UniProt P02768 25-609) |  |  | 700 |

— publication PMC7238188, “Recombinant Peptide Production Platform Coupled with Site-Specific Albumin Conjugation Enables a Convenient Production of Long-Acting Therapeutic Peptide” (Pharmaceutics, 2020)
